In patent US10975093B2, “Fused 1,4-diazepines as BET protein degraders” (THE REGENTS OF THE UNIVERSITY OF MICHIGAN, priority 2016, dated 2021) one finds IC50 data, which are given here for 16 compounds.

What all share (format): cell-based
In one assay the test system is MDA-MB-231. Put plainly: Cell growth inhibition, CellTiter-Glo Luminescent Cell Viability Assay, MDA-MB-231. Particulars: Homo sapiens, MDA-MB-231 cells, 4 days incubation. The essentials:
(§1)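 Cells were seeded at 2,000/well with serially diluted compound and grown 4 days at 37° C, 5% CO2. Viability was read by CellTiter-Glo luminescence after 10-20 min at room temperature, and IC50 was fitted from the dose-response.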
In general terms: ATP-based viability assays read luminescence as a measure of living cells.

The subject of another assay is MOLM-13. Nature of the assay: Cell growth inhibition, CellTiter-Glo Luminescent Cell Viability Assay, MOLM-13. Particulars: Homo sapiens, MOLM-13 cells, 4 days incubation. The essentials: as §1
The subject of another assay is MDA-MB-468. Nature of the assay: Cell growth inhibition, CellTiter-Glo Luminescent Cell Viability Assay, MDA-MB-468. Particulars: Homo sapiens, 96 h, MDA-MB-468 cells, 4 days incubation. How it is done: (§2) Cell growth inhibitory activity of representative Compounds of the Disclosure was determined in various cell lines using CellTiter-Glo® Luminescent Cell Viability Assay. Cells were seeded in 384-well white opaque cell culture plates at a density of 2,000 cells/well with serially diluted compounds and incubated at 37° C. in an atmosphere of 95% air and 5% CO2 for 4 days. Cell viability was determined using the CellTiter-Glo® Luminescent Cell Viability Assay Kit (Promega, Madison, Wis.) according to the manufacture's instruction. Briefly, a volume of CellTiter-Glo® Reagent equal to the volume of cell culture medium was added to each well, and then the plates were incubated at room temperature for 10-20 minutes. The luminescent signal was measured using a Tecan Infinite M1000 multimode microplate reader (Tecan, Morrisville, N.C.). The half maximal inhibitory concentration (IC50) was calculated using the GraphPad Prism 5 software (GraphPad Software, La Jolla, Calif.).

Another assay concerns RS4; 11. Nature of the assay: Cell growth inhibition, CellTiter-Glo Luminescent Cell Viability Assay, RS4;11. Particulars: Homo sapiens, 96 h, RS4;11 cells, 4 days incubation. How it is done:
as §2

The structures appear in SMILES notation. Where only a bound is given, the exact number is not on record here.

Usually IC50 stands for the midpoint of a concentration-inhibition curve. High values mean lower potency, low ones higher potency. Turning to `Cc1c(C#Cc2ccc(OCCCCc3cccc4c3CN(C3CCC(=O)NC3=O)C4=O)cn2)sc2c1C(c1ccc(Cl)cc1)=N[C@@H](C)c1nnc(C)n1-2` (stereo partly drawn) [Cpd. No. 12, 3-(4-(4-((6-(((S)-4-(4-chlorophenyl)-3,6,9-trimethyl-6H-thieno[3,2-f][1,2,4]triazolo[4,3-a][1,4]diazepin-2-yl)ethynyl)pyridin-3-yl)oxy)butyl)-1-oxoisoindolin-2-yl)piperidine-2,6-dione], the IC50 is 0.86 nM in the assay with MDA-MB-231 (96 h), 1.2 nM with MOLM-13 (96 h) and 3 nM in the assay on MDA-MB-468.

Regarding `Cc1c(C#Cc2cnn(CCCC#Cc3cccc4c3CN(C3CCC(C)NC3=O)C4=O)c2)sc2c1C(c1ccc(Cl)cc1)=NCc1nnc(C)n1-2` (stereo not shown) [compound 161, 4-(5-(4-((4-(4-chlorophenyl)-3,9-dimethyl-6H-thieno[3,2-f][1,2,4]triazolo[4,3-a][1,4]diazepin-2-yl)ethynyl)-1H-pyrazol-1-yl)pent-1-yn-1-yl)-2-(6-methyl-2-oxopiperidin-3-yl)isoindolin-1-one], the IC50 with MDA-MB-231 (MDA-MB-231, 96 h) came to 71.8 nM; in the assay on RS4; 11, 20.4 nM.

As to `Cc1c(C#Cc2cnn(CCCCNc3cccc4c3C(=O)N(C3CCC(=O)NC3)C4=O)c2)sc2c1C(c1ccc(Cl)cc1)=NCc1nnc(C)n1-2` (stereo not shown) [compound 164, 4-((4-(4-((4-(4-chlorophenyl)-3,9-dimethyl-6H-thieno[3,2-f][1,2,4]triazolo[4,3-a][1,4]diazepin-2-yl)ethynyl)-1H-pyrazol-1-yl)butyl)amino)-2-(6-oxopiperidin-3-yl)isoindoline-1,3-dione], the IC50 was 78.5 nM with MDA-MB-231 (MDA-MB-231, 96 h) and 74 nM in the assay on RS4; 11.

As for `Cc1c(C#Cc2cnn(CCCCOc3cccc4c3CN(C3CCC(=O)NC3=O)C4=O)c2)sc2c1C(c1ccc(Cl)cc1)=N[C@@H](C)c1nnc(C)n1-2` (stereo partly drawn) [compound 147, 3-(4-(4-(4-(((S)-4-(4-chlorophenyl)-3,6,9-trimethyl-6H-thieno[3,2-f][1,2,4]triazolo[4,3-a][1,4]diazepin-2-yl)ethynyl)-1H-pyrazol-1-yl)butoxy)-1-oxoisoindolin-2-yl)piperidine-2,6-dione], the half-inhibitory concentration (IC50) turned out to be 0.08 nM in the assay with MDA-MB-231 (MDA-MB-231, 96 h) and 0.05 nM in the assay with RS4; 11.

Turning to `Cc1c(C#Cc2ccc(CCCC#Cc3cccc4c3CN(C3CCC(=O)NC3=O)C4=O)cn2)sc2c1C(c1ccc(Cl)cc1)=NCc1nnc(C)n1-2` (stereo not shown) [Cpd. No. 13, 3-(4-(5-(6-((4-(4-chlorophenyl)-3,9-dimethyl-6H-thieno[3,2-f][1,2,4]triazolo[4,3-a][1,4]diazepin-2-yl)ethynyl)pyridin-3-yl)pent-1-yn-1-yl)-1-oxoisoindolin-2-yl)piperidine-2,6-dione], the IC50 in the assay on MDA-MB-231 (MDA-MB-231, 96 h) worked out at 7.4 nM; with MOLM-13 (MOLM-13, 96 h), 6.4 nM; in the assay on MDA-MB-468, 32.4 nM.

With `Cc1c(C#Cc2cnn(CCCCOc3cccc4c3C(=O)N(C3CCC(=O)NC3=O)C4=O)c2)sc2c1C(c1ccc(Cl)cc1)=N[C@@H](C)c1nnc(C)n1-2` (stereo partly drawn) [Cpd. No. 32, 4-(4-(4-(((S)-4-(4-chlorophenyl)-3,6,9-trimethyl-6H-thieno[3,2-f][1,2,4]triazolo[4,3-a][1,4]diazepin-2-yl)ethynyl)-1H-pyrazol-1-yl)butoxy)-2-(2,6-dioxopiperidin-3-yl)isoindoline-1,3-dione], the IC50 with MDA-MB-231 (MDA-MB-231, 96 h) was 2.5 nM; with MDA-MB-468, 3.5 nM.

For the compound `Cc1c(C#Cc2cnn(CCCCNc3cccc4c3CN(C3CCC(=O)NC3=O)C4=O)c2)sc2c1C(c1ccc(Cl)cc1)=N[C@@H](C)c1nnc(C)n1-2` (stereo partly drawn) [compound 145, 3-(4-((4-(4-(((S)-4-(4-chlorophenyl)-3,6,9-trimethyl-6H-thieno[3,2-f][1,2,4]triazolo[4,3-a][1,4]diazepin-2-yl)ethynyl)-1H-pyrazol-1-yl)butyl)amino)-1-oxoisoindolin-2-yl)piperidine-2,6-dione], the 50% inhibitory concentration (IC50) in the assay with MDA-MB-231 (MDA-MB-231, 96 h) came out at 0.39 nM; in the assay with RS4; 11, 0.13 nM.

As for `Cc1c(C#Cc2cnn(CCCCN3C(=O)CCC(N4Cc5c(N)cccc5C4=O)C3=O)c2)sc2c1C(c1ccc(Cl)cc1)=N[C@@H](C)c1nnc(C)n1-2` (stereo partly drawn) [compound 165, 3-(4-amino-1-oxoisoindolin-2-yl)-1-(4-(4-(((S)-4-(4-chlorophenyl)-3,6,9-trimethyl-6H-thieno[3,2-f][1,2,4]triazolo[4,3-a][1,4]diazepin-2-yl)ethynyl)-1H-pyrazol-1-yl)butyl)piperidine-2,6-dione], the half-maximal inhibitory concentration (IC50) in the assay with MDA-MB-231 (MDA-MB-231, 96 h) is 12.7 nM; in the assay on RS4; 11 it was 3.7 nM.

Take `Cc1c(C#Cc2cnn(CCCC#Cc3cccc4c3C(=O)N(C3CCC(=O)NC3=O)C4=O)c2)sc2c1C(c1ccc(Cl)cc1)=N[C@@H](C)c1nnc(C)n1-2` (stereo partly drawn) [Cpd. No. 30, 4-(5-(4-(((S)-4-(4-chlorophenyl)-3,6,9-trimethyl-6H-thieno[3,2-f][1,2,4]triazolo[4,3-a][1,4]diazepin-2-yl)ethynyl)-1H-pyrazol-1-yl)pent-1-yn-1-yl)-2-(2,6-dioxopiperidin-3-yl)isoindoline-1,3-dione]: the IC50 in the assay on MDA-MB-231 (MDA-MB-231, 96 h) came to 3.7 nM; with MDA-MB-468, 3.6 nM.

In the case of `Cc1c(C#Cc2ccc(CN3CCC(CNc4cccc5c4CN(C4CCC(=O)NC4=O)C5=O)CC3)cn2)sc2c1C(c1ccc(Cl)cc1)=NCc1nnc(C)n1-2` (stereo not shown) [compound 167, 3-(4-(((1-((6-((4-(4-chlorophenyl)-3,9-dimethyl-6H-thieno[3,2-f][1,2,4]triazolo[4,3-a][1,4]diazepin-2-yl)ethynyl)pyridin-3-yl)methyl)piperidin-4-yl)methyl)amino)-1-oxoisoindolin-2-yl)piperidine-2,6-dione], the IC50 in the assay with MDA-MB-231 (MDA-MB-231, 96 h) is 7.2 nM; with MOLM-13 (MOLM-13, 96 h), 6.2 nM.

For `Cc1c(C#Cc2cnn(CCCC#Cc3cccc4c3C(=O)N(C3CCC(=O)NC3)C4=O)c2)sc2c1C(c1ccc(Cl)cc1)=NCc1nnc(C)n1-2` (stereo not shown) [compound 163, 4-(5-(4-((4-(4-chlorophenyl)-3,9-dimethyl-6H-thieno[3,2-f][1,2,4]triazolo[4,3-a][1,4]diazepin-2-yl)ethynyl)-1H-pyrazol-1-yl)pent-1-yn-yl)-2-(6-oxopiperidin-3-yl)isoindoline-1,3-dione], the IC50 came out at 284 nM with MDA-MB-231 (MDA-MB-231, 96 h) and 216 nM with RS4; 11.

With `Cc1c(C#Cc2cnn(CCCCn3cnc(CNc4cccc5c4CN(C4CCC(=O)NC4=O)C5=O)c3)c2)sc2c1C(c1ccc(Cl)cc1)=NCc1nnc(C)n1-2` (stereo not shown) [compound 152, 3-(4-(((1-(4-(4-((4-(4-chlorophenyl)-3,9-dimethyl-6H-thieno[3,2-f][1,2,4]triazolo[4,3-a][1,4]diazepin-2-yl)ethynyl)-1H-pyrazol-1-yl)butyl)-1H-imidazol-4-yl)methyl)amino)-1-oxoisoindolin-2-yl)piperidine-2,6-dione], the IC50 came to 12.2 nM in the assay on MDA-MB-231 (MDA-MB-231, 96 h) and 8.7 nM with MOLM-13 (MOLM-13, 96 h).

On to `Cc1ncsc1-c1ccc([C@H](C)NC(=O)[C@@H]2C[C@@](C)(O)CN2C(=O)[C@@H](NC(=O)COCCCn2cc(C#Cc3sc4c(c3C)C(c3ccc(Cl)cc3)=N[C@@H](C)c3nnc(C)n3-4)cn2)C(C)(C)C)cc1` [compound 205, (2S,4R)-1-((S)-2-(2-(3-(4-(((S)-4-(4-chlorophenyl)-3,6,9-trimethyl-6H-thieno[3,2-f][1,2,4]triazolo[4,3-a][1,4]diazepin-2-yl)ethynyl)-1H-pyrazol-1-yl)propoxy)acetamido)-3,3-dimethylbutanoyl)-4-hydroxy-4-methyl-N-((S)-1-(4-(4-methylthiazol-5-yl)phenyl)ethyl)pyrrolidine-2-carboxamide], for which the IC50 in the assay with MDA-MB-231 (MDA-MB-231, 96 h) is 93 nM; with MOLM-13 (MOLM-13, 96 h) it was 42.3 nM.

`Cc1c(C#Cc2ccc(OCCC#Cc3cccc4c3CN(C3CCC(=O)NC3=O)C4=O)cn2)sc2c1C(c1ccc(Cl)cc1)=NCc1nnc(C)n1-2` (stereo not shown) [Cpd. No. 15, 3-(4-(4-((6-((4-(4-chlorophenyl)-3,9-dimethyl-6H-thieno[3,2-f][1,2,4]triazolo[4,3-a][1,4]diazepin-2-yl)ethynyl)pyridin-3-yl)oxy)but-1-yn-1-yl)-1-oxoisoindolin-2-yl)piperidine-2,6-dione]: the values for the 50% inhibitory concentration (IC50) in the assay with MDA-MB-231 (96 h) and with MOLM-13 (96 h) were 39.1 nM and 82.6 nM, respectively.

In the case of `Cc1c(C#Cc2cnn(CCCC#Cc3cccc4c3CN(C3CCC(C)NC3=O)C4=O)c2)sc2c1C(c1ccc(Cl)cc1)=N[C@@H](C)c1nnc(C)n1-2` (stereo partly drawn) [compound 162, 4-(5-(4-(((S)-4-(4-chlorophenyl)-3,6,9-trimethyl-6H-thieno[3,2-f][1,2,4]triazolo[4,3-a][1,4]diazepin-2-yl)ethynyl)-1H-pyrazol-1-yl)pent-1-yn-1-yl)-2-(6-methyl-2-oxopiperidin-3-yl)isoindolin-1-one], the 50% inhibitory concentration (IC50) worked out at 22 nM in the assay with MDA-MB-231 (MDA-MB-231, 96 h) and 2.4 nM with RS4; 11.

With `Cc1c(C#Cc2cnn(CCCn3cnc(CNc4cccc5c4CN(C4CCC(=O)NC4=O)C5=O)c3)c2)sc2c1C(c1ccc(Cl)cc1)=NCc1nnc(C)n1-2` (stereo not shown) [compound 151, 3-(4-(((1-(3-(4-((4-(4-chlorophneyl)-3,9-dimethyl-6H-thieno[3,2-f][1,2,4]triazolo[4,3-a][1,4]diazepin-2-yl)ethynyl)-1H-pyrazol-1-yl)propyl)-1H-imidazol-4-yl)methyl)amino)-1-oxoisoindolin-2-yl)piperidine-2,6-dione], the IC50 was greater than 100 nM in the assay with MDA-MB-231 (MDA-MB-231, 96 h) and greater than 100 nM with MOLM-13 (MOLM-13, 96 h).
